From patent US5075289A, “9-R-azacyclic erythromycin antibiotics” (priority 1988, dated 1991)
Values after ≈ are worked out from the molar mass of the structure shown. Like-named read-outs stand apart in the source and are kept apart here.

Key:
Format in all cases: cell-based
[1] = system: Haemophilus influenzae 566A; test: In vitro antibacterial activity, agar dilution MIC; conditions: H. influenzae 566A
How it was run: (§1)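 In agar dilution on Brain Heart Infusion agar, twelve successive compound dilutions were inoculated at 1:100 (1:10 for slow growers such as Streptococcus) by replicator and incubated 20–24 h at 35–37 °C. MIC is the lowest concentration giving no growth, slight haze or sparse colonies; erythromycin A was the class control.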

[2] = system: Haemophilus influenzae 632A; test: In vitro antibacterial activity, agar dilution MIC; conditions: H. influenzae 632A
How it was run: as §1

[3] = system: Haemophilus influenzae 747C; test: In vitro antibacterial activity, agar dilution MIC; conditions: H. influenzae 747C
How it was run: as §1

[4] = system: Haemophilus influenzae ATCC 9795; test: In vitro antibacterial activity, agar dilution MIC; conditions: ATCC9795, H. influenzae ATCC 9795
How it was run: as §1

[5] = system: Haemophilus influenzae DILL AMP R; test: In vitro antibacterial activity, agar dilution MIC; conditions: H. influenzae DILL AMP R
How it was run: as §1

[6] = system: Micrococcus luteus ATCC 4698; test: In vitro antibacterial activity, agar dilution MIC
How it was run: as §1

[7] = system: Staphylococcus aureus A5177; test: In vitro antibacterial activity, agar dilution MIC; conditions: S. aureus A5177, Brain Heart Infusion agar, 20-24 hours, read-out: MIC
How it was run: as §1

[8] = system: Staphylococcus aureus CMX 553; test: In vitro antibacterial activity, agar dilution MIC; conditions: CMX553, S. aureus CMX 553, Brain Heart Infusion agar, 20-24 hours, read-out: MIC
How it was run: as §1

[9] = system: Streptococcus pyogenes EES61; test: In vitro antibacterial activity, agar dilution MIC; conditions: S. pyogenes EES61, Brain Heart Infusion agar, 20-24 hours, read-out: MIC
How it was run: as §1

[10] = system: Staphylococcus aureus 45 RAR 2; test: microbe, parasite or virus in culture; conditions: 45RAR2
How it was run: as §1

SMILES | MIC [1] | MIC [2] | MIC [3] | MIC [4] | MIC [5] | MIC ([6]; ATCC4698, M. luteus ATCC 4698, Brain Heart Infusion agar, 20-24 hours, read-out: MIC) | MIC [7] | MIC [8] | MIC [9] | MIC [10] | MIC ([6]; ATCC4698, read-out: MIC)
CC[C@H]1OC(=O)[C@H](C)[C@@H](O[C@H]2C[C@@](C)(OC)[C@@H](O)[C@H](C)O2)[C@H](C)[C@@H](O[C@@H]2O[C@H](C)C[C@H](N(C)C)[C@H]2O)[C@](C)(O)C[C@@H](C)[C@@H](N2CCCCC2)[C@H](C)[C@@H](O)[C@]1(C)O [Example 5] | 2 µg/mL (≈ 2.49 µM) | 1 µg/mL (≈ 1.25 µM) | 1 µg/mL (≈ 1.25 µM) | 1 µg/mL (≈ 1.25 µM) | 1 µg/mL (≈ 1.25 µM) | 0.2 µg/mL (≈ 0.249 µM) | 6.2 µg/mL (≈ 7.72 µM) | 0.39 µg/mL (≈ 0.486 µM) | 0.05 µg/mL (≈ 0.0623 µM) | 0.78 µg/mL (≈ 0.971 µM) | –
CC[C@H]1OC(=O)[C@H](C)[C@@H](O[C@H]2C[C@@](C)(OC)[C@@H](O)[C@H](C)O2)[C@H](C)[C@@H](O[C@@H]2O[C@H](C)C[C@H](N(C)C)[C@H]2O)[C@](C)(O)C[C@@H](C)[C@@H](N2CCOCC2)[C@H](C)[C@@H](O)[C@]1(C)O [Example 19] | 4 µg/mL (≈ 4.97 µM) | 4 µg/mL (≈ 4.97 µM) | 2 µg/mL (≈ 2.48 µM) | 4 µg/mL (≈ 4.97 µM) | 2 µg/mL (≈ 2.48 µM) | – | 6.2 µg/mL (≈ 7.7 µM) | 0.39 µg/mL (≈ 0.484 µM) | 0.05 µg/mL (≈ 0.0621 µM) | 0.39 µg/mL (≈ 0.484 µM) | 0.2 µg/mL (≈ 0.248 µM)
